As usually defined, the IC50 is the point on the concentration scale where inhibition reaches its midpoint.

Experiment [1] concerns the target T1, 11beta-HSD1 (Homo sapiens, UniProt P28845). As to the kind of experiment: Microsome assay: cortisone to cortisol conversion, ELISA detection. Format: biochemical. More on the design: The cDNA encoding the human 11beta-HSD1 protein was cloned into the expression vector pcDNA3; made in house; host or cells: HEK293 cells (ATCC CRL-1573), transient transfection; microsomal fraction. The settings on record: microsomes from HEK293 cells transiently expressing human 11beta-HSD1; 60 min, 37° C.; Cortisone 50-200 nM, NADPH 1 mM; read-out: h 11-beta-HSD 1 IC50. The procedure:
The cDNA encoding the human 11beta-HSD1 protein was cloned into the expression vector pcDNA3 ([…]). This construct (for details see Alex Odermatt et al.; J Biol Chem., 1999, Vol. 274, Issue 40, 28762-28770) was used to transiently express the protein in HEK293 cells (ATCC number: CRL-1573, described in Graham, F. L., Smiley, J., Russell, W. C., Nairn, R.; (1977)) using lipofectamine. 48 h after transfection cells were washed twice with ice-cold PBS (Phsophate buffered Saline). To 1 volume of cell suspension in PBS 2 volumes of ice-cold lysis buffer (50 mM Tris; pH7.5; 1 mM EDTA; 100 mM NaCl) were added. The cells were lysed by Potter-homogenization (20 strokes). The resulting homogenate was sonicated with a tip sonicator (10% output; 2×30 sec.) and cleared by a low speed centrifugation (10 min×9000 g; 4° C.). The microsomal fraction was collected by a high speed centrifugation (60 min×110,000 g). […]
Microsomes isolated from HEK293 cells transiently expressing human 11beta-HSD1 (for details see above) were incubated in assay buffer (100 mM NaCl; 1 mM EDTA; 1 mM EGTA; 1 mM MgCl; 250 mM Sucrose; 20 mM Tris pH 7.4; Cortisone 50-200 nM and NADPH 1 mM) together with different concentrations of test substances. […] The amount of Cortisol produced in this assay was determined using a commercially available, ELISA-based Cortisol-detection kit (Distributed by Assay Design, Inc.). […]
Background: An ELISA detects its analyte on a solid surface through an enzyme-linked reagent.

In experiment [2] the target is T1, 11beta-HSD1. More on the design: host or cells: human subjects (in vivo). Particulars: treatment of humans with carbenoxolone; cited from earlier work.

T1 sequence (P28845 whole entry): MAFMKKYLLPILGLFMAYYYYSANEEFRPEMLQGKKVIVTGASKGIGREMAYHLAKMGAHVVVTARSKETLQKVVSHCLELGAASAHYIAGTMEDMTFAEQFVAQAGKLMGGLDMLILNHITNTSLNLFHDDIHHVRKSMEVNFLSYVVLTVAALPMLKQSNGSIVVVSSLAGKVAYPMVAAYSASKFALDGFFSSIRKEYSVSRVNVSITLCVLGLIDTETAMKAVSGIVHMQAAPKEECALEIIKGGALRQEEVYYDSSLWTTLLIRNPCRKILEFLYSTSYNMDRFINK

In the case of `O=S(=O)(Nc1ccnc(C2CC2)n1)c1ccc(-c2ccccc2)cc1` [Example 5, Biphenyl-4-sulfonic acid (2-cyclopropyl-pyrimidin-4-yl)-amide], the IC50 on 11beta-HSD1 [1] is 20 nM.

On to `CC(C)c1nccc(NS(=O)(=O)c2ccc3ccccc3c2)n1` [Example 26, Naphthalene-2-sulfonic acid (2-isopropyl-pyrimidin-4-yl)-amide], for which, on 11beta-HSD1 [1], the IC50 was found to be 167 nM.

In the case of `CC1(C)[C@@H](OC(=O)CCC(=O)O)CC[C@]2(C)[C@H]3C(=O)C=C4[C@@H]5C[C@@](C)(C(=O)O)CC[C@]5(C)CC[C@@]4(C)[C@]3(C)CC[C@@H]12` [carbenoxolone], at 11beta-HSD1 [2], the “effect on insulin sensitivity” value was “increase in insulin sensitivity”.

Source of the values: patent US7507733B2, “11b-HSD1 inhibitors for the treatment of diabetes” (Hoffmann-La Roche Inc., priority 2004, dated 2009).
